Here are results for 1 molecule from ChEMBL document CHEMBL4152208, “Synthesis and structure-activity relationships of quinolinone and quinoline-based P2X7 receptor antagonists and their anti-sphere formation activities in glioblastoma cells” (Eur J Med Chem, 2018).

Data set [1] can be described thus: Drug level in zebrafish brain at 10 mg/kg, po administered via gavage measured 0.5 hrs post compound administration by LC-MS/MS analysis. The data set is classed as ADME, organism-based, Danio rerio. The settings on record: read-out: Drug uptake.
For data set [2], the species on record is Homo sapiens. As to the kind of experiment: Antiproliferative activity against human TS15-88 cells at 50 uM after 72 hrs by MTS assay. The data set is classed as functional, cell-based. Background: Formazan colour is commonly taken as a measure of viable cells.
The target of data set [3] is T1, P2X purinoceptor 7 (Homo sapiens, UniProt Q99572).
T1 sequence (Q99572 whole entry): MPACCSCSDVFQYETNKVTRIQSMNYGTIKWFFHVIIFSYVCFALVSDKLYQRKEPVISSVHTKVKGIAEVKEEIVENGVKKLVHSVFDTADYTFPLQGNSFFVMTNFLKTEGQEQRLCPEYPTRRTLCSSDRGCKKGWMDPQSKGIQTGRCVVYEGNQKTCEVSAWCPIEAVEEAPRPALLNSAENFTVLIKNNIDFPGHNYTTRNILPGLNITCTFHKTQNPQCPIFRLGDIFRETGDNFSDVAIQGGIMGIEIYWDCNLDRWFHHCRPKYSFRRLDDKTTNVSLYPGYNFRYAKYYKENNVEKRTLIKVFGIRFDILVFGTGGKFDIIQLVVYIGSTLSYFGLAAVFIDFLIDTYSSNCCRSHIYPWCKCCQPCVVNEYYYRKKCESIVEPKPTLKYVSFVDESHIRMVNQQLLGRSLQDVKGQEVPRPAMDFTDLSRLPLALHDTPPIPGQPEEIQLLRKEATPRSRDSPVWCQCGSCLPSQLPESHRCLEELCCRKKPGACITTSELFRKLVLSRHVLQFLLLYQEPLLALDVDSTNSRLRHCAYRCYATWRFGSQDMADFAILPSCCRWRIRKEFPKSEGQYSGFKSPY
As to the kind of experiment: Antagonist activity at P2X7 in LPS/IFN gamma differentiated human THP-1 cells assessed as inhibition of BzATP-induced IL-1beta release preincubated for 30 mins followed by BzATP stimulation for 30 mins by ELISA. The data set is classed as cell-based. Background: ELISA stands for enzyme-linked immunosorbent assay.

The target of data set [4] is T2, P2X purinoceptor 1 (Homo sapiens) (UniProt P51575).
T2 sequence (whole entry): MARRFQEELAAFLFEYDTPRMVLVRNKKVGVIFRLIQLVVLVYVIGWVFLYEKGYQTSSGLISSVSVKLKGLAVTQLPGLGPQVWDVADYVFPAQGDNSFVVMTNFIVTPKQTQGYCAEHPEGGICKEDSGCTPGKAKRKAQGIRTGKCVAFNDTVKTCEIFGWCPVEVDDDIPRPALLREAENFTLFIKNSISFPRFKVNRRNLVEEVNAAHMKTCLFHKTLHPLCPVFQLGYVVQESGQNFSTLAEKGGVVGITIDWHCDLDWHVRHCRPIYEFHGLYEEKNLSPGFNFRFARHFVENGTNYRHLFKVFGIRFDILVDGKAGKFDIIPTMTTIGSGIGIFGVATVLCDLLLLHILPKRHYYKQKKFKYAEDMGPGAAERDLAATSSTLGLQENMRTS
As to the kind of experiment: Antagonist activity at human P2X1 receptor expressed in 1321N1 cells assessed as inhibition of ATP-induced calcium flux at 1 uM measured for 30 secs at 0.4 secs intervals by Flou-4-AM dye based fluorescence assay relative to control. The format is cell-based. (In general: A change in cytosolic calcium serves as a functional read-out for many receptors and channels.)

Data set [5] is described as follows: Metabolic stability in rat liver microsomes assessed as parent compound remaining at 1 uM up to 30 mins in presence of NADPH by LC-MS/MS analysis. The data set is classed as ADME, microsome. The settings on record: read-out: Stability.
Data set [6] can be described thus: Metabolic stability in human liver microsomes assessed as parent compound remaining at 1 uM up to 30 mins in presence of NADPH by LC-MS/MS analysis. The settings on record: read-out: Stability. The data set is classed as ADME, microsome.
A short description of data set [7]: Increase in MYC mRNA expression in human TS15-88 cells after 72 hrs by qRT-PCR analysis relative to control. The format is functional.
Data set [8] in a line: Equilibrium solubility of the compound in DMSO after 16 hrs. The format is physicochemical.
Data set [9] can be described thus: Increase in CD133 mRNA expression in human TS15-88 cells after 72 hrs by qRT-PCR analysis relative to control. The data set is classed as functional.
Data set [10] can be described thus: Metabolic stability in mouse liver microsomes assessed as parent compound remaining at 1 uM up to 30 mins in presence of NADPH by LC-MS/MS analysis. The data set is classed as ADME, microsome. The settings on record: read-out: Stability.

SMILES strings stand for the structures. ≈ marks a conversion by molar mass, not a printed value. Calls of active or inactive are those of the source. The calls are words filed in the database; no cut-off is given here.

The term IC50 denotes the midpoint of a concentration-inhibition curve. For orientation: inhibition means the share of the control response that was lost under treatment. In general, solubility refers to the concentration that dissolves in the medium under given conditions. A higher solubility goes with much dissolved substance. For `O=C(CC12CC3CC(CC(C3)C1)C2)Nc1cccc2nc(Cl)ccc12`, the concentration at 0.5 h in data set [1] was 425 ng/g. The outcome in data set [2] was Active. Moreover, the concentration for half-maximal inhibition (IC50) in data set [3] is 7 nM. For the same molecule, the inhibition in [4] was found to be 13%. Besides, the remaining at 0.5 h, 1 µM in data set [5] was determined as 0.06%; in data set [6] it was 0.04%; in data set [10], 0.1%. Moreover, the Activity in data set [7] is 41%; in [9], 30%. For the same molecule, the solubility at 16 h in [8] came to 15.6 µM (≈ 5.54 µg/mL).
